Results reported in publication PMC7588595, “Small-molecule active pharmaceutical ingredients of approved cancer therapeutics inhibit human aspartate/asparagine-β-hydroxylase” (Bioorganic & Medicinal Chemistry, 2020).
Counter-ions that a name gives are not always drawn. Like-named read-outs stand apart in the source and are kept apart here.

Molecular target: T1, human AspH (His6-AspH315–758) (Homo sapiens, UniProt Q12797)
T1 construct: N-Terminally His6-tagged human AspH315–758 (His6-AspH315–758) was produced in Escherichia coli BL21 (DE3) cells; made in house; host or cells: Escherichia coli BL21 (DE3), pET-28a(+) vector
T1 sequence (Q12797 315-758): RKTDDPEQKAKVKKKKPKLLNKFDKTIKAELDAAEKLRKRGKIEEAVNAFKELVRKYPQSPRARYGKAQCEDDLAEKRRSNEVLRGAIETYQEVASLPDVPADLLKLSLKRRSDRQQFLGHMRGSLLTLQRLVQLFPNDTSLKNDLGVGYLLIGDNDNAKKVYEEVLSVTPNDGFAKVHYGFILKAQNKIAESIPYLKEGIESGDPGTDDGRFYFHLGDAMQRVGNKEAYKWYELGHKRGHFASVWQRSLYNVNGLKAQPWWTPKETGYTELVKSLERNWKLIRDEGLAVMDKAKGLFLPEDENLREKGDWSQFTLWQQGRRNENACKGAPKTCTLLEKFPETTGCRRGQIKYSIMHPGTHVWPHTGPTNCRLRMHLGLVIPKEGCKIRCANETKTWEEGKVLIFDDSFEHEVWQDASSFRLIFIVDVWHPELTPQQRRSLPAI
Assay: SPE-MS AspH inhibition assay (hFX-CP101-119 substrate hydroxylation)
Assay type: biochemical

[1] = AspH-inhibitor screening, 384-well Plate 1
[2] = AspH-inhibitor screening, 384-well Plate 1, substrate conversion
[3] = AspH-inhibitor screening, Plate 1-duplicate
[4] = AspH-inhibitor screening, Plate 1-duplicate, substrate conversion

| Compound | Plate 1 (% inhibition) [1] | Plate 1 (% conversion) [2] | Plate 1-duplicate (% inhibition) [3] | Plate 1-duplicate (% conversion) [4] | Plate 1 (% conversion) | Plate 1 (% inhibition) | Plate 1-duplicate (% conversion) | Plate 1-duplicate (% inhibition) |
| --- | --- | --- | --- | --- | --- | --- | --- | --- |
| CCN(CCO)CCCOc1ccc2c(Nc3cc(CC(=O)Nc4cccc(F)c4)[nH]n3)ncnc2c1 [AZD1152-HQPA] | 1.19% | 49.20% | 0.26% | 51.91% | – | – | – | – |
| O=C(CCBr)N1CCN(C(=O)CCBr)CC1 [Pipobroman] | 11.08% | 44.63% | 4.27% | 49.93% | – | – | – | – |
| C[C@]12C=CC(=O)C=C1CC[C@@H]1[C@@H]2C(=O)C[C@@]2(C)[C@H]1CC[C@]2(O)C(=O)CO [Prednisone] | -2.32% | 50.82% | 2.01% | 51.04% | – | – | – | – |
| COc1cc2c(cc1O)CC[C@@H]1[C@@H]2CC[C@]2(C)[C@@H](O)CC[C@@H]12 [2-methoxyestradiol (Panzem)] | 5.63% | 47.15% | 3.64% | 50.24% | – | – | – | – |
| CN(C)C/C=C/C(=O)Nc1cc2c(Nc3ccc(F)c(Cl)c3)ncnc2cc1O[C@H]1CCOC1 [BIBW2992 (Tovok)_Afatinib] | -24.14% | 60.90% | -42.32% | 73.03% | – | – | – | – |
| Nc1ccccc1NC(=O)c1ccc(CNc2nccc(-c3cccnc3)n2)cc1 [MGCD0103_Mocetinostat] | 4.45% | 47.69% | 6.61% | 48.76% | – | – | – | – |
| CC[C@@]1(O)C(=O)OCc2c1cc1n(c2=O)Cc2cc3c(CN(C)C)c(O)ccc3nc2-1 [Topotecan hydrochloride] | 4.87% | 47.50% | 6.81% | 48.66% | – | – | – | – |
| C#Cc1cccc(Nc2ncnc3cc(OC)c(OCCCCCCC(=O)NO)cc23)c1 [CUDC-101] | 70.67% | 17.12% | 72.15% | 16.26% | – | – | – | – |
| CNCc1ccc(-c2[nH]c3cc(F)cc4c3c2CCNC4=O)cc1 [AG-014699_Rucaparib] | 17.02% | 41.89% | 9.37% | 47.39% | – | – | – | – |
| Nc1cc(C(F)(F)F)c(-c2cc(N3CCOCC3)nc(N3CCOCC3)n2)cn1 [BKM-120_Buparlisib] | 1.72% | 48.96% | -1.07% | 52.57% | – | – | – | – |
| VX-11e | – | – | – | – | 33.84% | 34.46% | 36.75% | 30.84% |
| CS(=O)(=O)CCNCc1ccc(-c2ccc3ncnc(Nc4ccc(OCc5cccc(F)c5)c(Cl)c4)c3c2)o1 [Lapatinib] | -31.93% | 64.49% | -19.57% | 61.75% | – | – | – | – |
| CCNC(=O)c1noc(-c2cc(C(C)C)c(O)cc2O)c1-c1ccc(CN2CCOCC2)cc1 [NVP-AUY922] | -7.77% | 53.34% | -12.32% | 58.15% | – | – | – | – |
| CCCS(=O)(=O)Nc1ccc(F)c(C(=O)c2c[nH]c3ncc(-c4ccc(Cl)cc4)cc23)c1F [PLX4032_Vemurafenib] | 39.76% | 31.39% | 46.15% | 29.15% | – | – | – | – |
| Nc1cccc2c1C(=O)N(C1CCC(=O)NC1=O)C2=O (centres unmarked) [Pomalidomide] | 0.86% | 49.35% | 1.01% | 51.54% | – | – | – | – |
| CC[C@H](C)C(=O)O[C@H]1C[C@H](O)C=C2C=C[C@H](C)[C@H](CC[C@@H](O)C[C@@H](O)CC(=O)O)[C@H]21 [Pravastatin] | 12.19% | 44.12% | 8.98% | 47.59% | – | – | – | – |
| N[C@@H](Cc1ccc(N(CCCl)CCCl)cc1)C(=O)O [Melphalan] | 9.41% | 45.40% | 3.88% | 50.12% | – | – | – | – |
| C[C@]1(O)C[C@@H](c2nc(-c3ccc4ccc(-c5ccccc5)nc4c3)c3c(N)nccn32)C1 [OSI-906_Linsitinib] | 4.66% | 47.60% | -12.38% | 58.18% | – | – | – | – |
| COc1cc(Nc2ncc3c(n2)-c2ccc(Cl)cc2C(c2c(F)cccc2OC)=NC3)ccc1C(=O)O [MLN8237_Alisertib] | 2.09% | 48.78% | 7.11% | 48.51% | – | – | – | – |
| COc1c2occc2cc2ccc(=O)oc12 [Methoxsalen] | 0.45% | 49.54% | 1.60% | 51.25% | – | – | – | – |
| CC(=O)[C@]1(O)Cc2c(O)c3c(c(O)c2[C@@H](O[C@H]2C[C@H](N)[C@H](O)[C@H](C)O2)C1)C(=O)c1ccccc1C3=O [Idarubicin HCl] | 6.62% | 46.69% | 5.28% | 49.42% | – | – | – | – |
| CS(=O)(=O)c1ccc(C(=O)Nc2ccc(Cl)c(-c3ccccn3)c2)c(Cl)c1 [Vismodegib] | 10.42% | 44.94% | 2.79% | 50.66% | – | – | – | – |
| O=NN(CCCl)C(=O)NC1CCCCC1 [Lomustine] | 9.88% | 45.19% | 8.61% | 47.77% | – | – | – | – |
| O=c1[nH]c(=O)n([C@H]2C[C@H](O)[C@@H](CO)O2)cc1C(F)(F)F [Trifluridine] | 1.86% | 48.89% | -0.91% | 52.49% | – | – | – | – |
| C=C(c1ccc(C(=O)O)cc1)c1cc2c(cc1C)C(C)(C)CCC2(C)C [Bexarotene] | -5.40% | 52.24% | -0.39% | 52.24% | – | – | – | – |
| COc1cc(Nc2c(C#N)cnc3cc(OCCCN4CCN(C)CC4)c(OC)cc23)c(Cl)cc1Cl [Bosutinib] | -48.53% | 72.16% | -50.33% | 77.00% | – | – | – | – |
| NCCCNCCSP(=O)(O)O [Amifostine] | 3.65% | 48.06% | 5.75% | 49.19% | – | – | – | – |
| CN(c1ccccc1CNc1nc(Nc2ccc3c(c2)CC(=O)N3)ncc1C(F)(F)F)S(C)(=O)=O [PF 431396] | 1.90% | 48.87% | -4.64% | 54.34% | – | – | – | – |
| Cc1ccc(C(=O)N(CCCN)[C@@H](c2oc3cc(Cl)ccc3c(=O)c2Cc2ccccc2)C(C)C)cc1 [SB 743921] | -12.94% | 55.72% | -30.32% | 67.08% | – | – | – | – |
